Measurements as given in US11174243B2, “Succinate forms and compositions of Bruton's tyrosine kinase inhibitors” (Sunesis Pharmaceuticals, Inc., priority 2016, dated 2021).

Tests used:
[1] = biological target: T1, BTK (Homo sapiens, UniProt Q06187); experiment: Phase 1a single-dose study in humans: BTK inhibition (pBTK) in whole blood; format: in vivo
T1 construct: from tissue; host or cells: human whole blood
Procedure: The primary endpoint of safety was assessed by monitoring adverse events (AEs), laboratory abnormalities, and cardiac findings (ECG). Secondary endpoints included evaluation of the PK parameters of area under the plasma concentration-time curve (AUC), maximum plasma concentration (Cmax), time of maximum concentration (Tmax), apparent volume of distribution (Vd/F), terminal elimination half-life (t1/2), terminal elimination rate constant (λz), and apparent clearance (Cl/F) as well as the PD parameter of BTK inhibition in whole blood. BTK inhibition was calculated based on phosphorylated BTK (pBTK) and total BTK (totBTK). All postdose blood samples and one predose sample were lysed in the presence of protease and phosphatase inhibitors (PPi); a second predose sample was lysed without PPi to estimate maximum reduction in pBTK attainable. The ratio of predose pBTK/totBTK without PPi was subtracted from each pBTK/totBTK with PPi, and % pBTK vs predose was calculated: […]

[2] = biological target: T2, CYP3A4 (Homo sapiens, UniProt P08684); experiment: Phase 1a study Stage 3: drug-drug interaction with itraconazole (effect of CYP3A4 inhibition); format: in vivo; settings: for Cmax / AUC(0-t) / AUC(0-inf) / Tmax: plasma, oral; for Cmax / AUC(0-t) / AUC(0-inf): arithmetic mean (CV %); for Tmax: median (min, max)
T2 construct: from tissue; host or cells: human subjects in vivo
T2 sequence (P08684 whole entry): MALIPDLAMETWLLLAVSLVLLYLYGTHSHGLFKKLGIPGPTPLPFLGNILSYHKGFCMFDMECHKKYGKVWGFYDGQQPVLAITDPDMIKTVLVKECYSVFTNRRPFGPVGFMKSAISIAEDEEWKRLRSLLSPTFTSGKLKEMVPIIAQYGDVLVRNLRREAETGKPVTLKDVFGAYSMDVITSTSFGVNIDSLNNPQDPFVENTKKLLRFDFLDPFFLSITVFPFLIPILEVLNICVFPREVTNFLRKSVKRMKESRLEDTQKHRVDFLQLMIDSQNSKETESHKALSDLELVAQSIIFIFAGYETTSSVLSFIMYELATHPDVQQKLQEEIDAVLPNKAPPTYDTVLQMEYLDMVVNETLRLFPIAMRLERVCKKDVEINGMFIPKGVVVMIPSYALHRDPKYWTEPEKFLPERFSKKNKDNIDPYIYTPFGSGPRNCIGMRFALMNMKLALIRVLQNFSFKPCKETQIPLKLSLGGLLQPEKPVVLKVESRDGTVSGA
Procedure: Stage 3 evaluated 12 subjects from Cohort 6 who had already received Compound 2 in Stage 2 of the study. Compound 2 at a dose of 25 mg was administered once in the fasted state on Day 1 and subjects were followed for safety, PK and PD evaluations. On Day 4, subjects then received itraconazole (a potent CYP3A4 inhibitor) that was administered at a dose of 200 mg twice daily on Days 4 through 9 in the fed state (except at the morning dose on Day 7). In the morning of Day 7, subjects received itraconazole at a dose of 200 mg followed shortly by administration of Compound 2 at a dose of 25 mg (with both drugs given in the fasted state). Subjects were then followed for safety, PK and PD evaluations on Days 7, 8, 9, and 10. PK results observed following administration of Compound 2 alone on Day 1 were compared with those observed in these same subjects after administration of Compound 2 with itraconazole on Day 7.
The effect of the strong CYP3A4 inhibitor, itraconazole, on the pharmacokinetics of an oral dose of 25 mg Compound 2 was evaluated in 12 subjects (Table 7a). […].

[3] = system: CD40 expression; experiment: CpG induced CD40 expression (flow cytometry); format: cell-based, human; settings: 3.2 μM CpG stimulation, 1 μM
Procedure: Methods: Primary CLL B cells were isolated from the whole blood of consented patients by FICOLL density centrifugation and rosette-sep negative selection. Annexin V and propidium iodide flow cytometry was used to measure patient CLL cell viability and 7AAD was used to measure viability in stromal co-culture. CD40 and CD86 expression was evaluated via flow cytometry subsequent to sustained 3.2 μM CpG stimulation. BCR signaling in primary CLL cells was investigated by immunoblot succeeding 1 hour treatment and following 1 hour or 24 hours of incubation with Compound 1 in XLA cell lines. MTS values were read after 24 hours of drug incubation. ITK inhibition was investigated via immunoblot after stimulation with anti-CD3 and anti-CD28 and incubation with Compound 1 for 1 hour. Compound 1 was used at a concentration of 1 μM in preclinical studies unless otherwise noted.

[4] = biological target: T3, TXK (Homo sapiens, UniProt P42681); experiment: Kinase selectivity, TXK (Kd)
T3 sequence (P42681 1-527): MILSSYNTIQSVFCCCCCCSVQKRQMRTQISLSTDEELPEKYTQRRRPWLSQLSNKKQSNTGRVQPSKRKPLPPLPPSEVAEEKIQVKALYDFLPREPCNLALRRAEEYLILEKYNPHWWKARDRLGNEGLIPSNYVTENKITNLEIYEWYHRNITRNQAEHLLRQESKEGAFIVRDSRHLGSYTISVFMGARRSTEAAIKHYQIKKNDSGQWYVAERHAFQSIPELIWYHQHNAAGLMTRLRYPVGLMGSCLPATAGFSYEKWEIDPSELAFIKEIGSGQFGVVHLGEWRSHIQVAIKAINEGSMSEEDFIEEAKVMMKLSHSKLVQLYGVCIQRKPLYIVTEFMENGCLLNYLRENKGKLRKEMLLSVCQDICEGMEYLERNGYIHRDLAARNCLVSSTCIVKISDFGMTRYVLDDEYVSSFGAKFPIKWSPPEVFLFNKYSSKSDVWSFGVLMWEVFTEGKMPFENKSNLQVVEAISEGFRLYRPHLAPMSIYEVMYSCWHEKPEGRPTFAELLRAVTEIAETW

[5] = Phase 1a study Stage 2: food effect on pharmacokinetics; format: in vivo, human; settings: 200 mg oral
Procedure: In Stage 2, the effects of food on the pharmacokinetics of Compound 2 were assessed. In this stage, 12 newly enrolled subjects (6 males, 6 females; Cohort 6) were administered Compound 2 on two separate occasions, either in a fasting or fed state, with a period of ≥72 hours between the two doses. The Compound 2 dose level was 200 mg. The 12 subjects were randomized such that 6 subjects (3 males, 3 females) received Compound 2 after an overnight fast, and 6 subjects (3 males, 3 females) received Compound 2 after ingestion of a standardized, high-fat meal. Approximately 4 days later, the subjects were crossed over so that those who received Compound 2 without food in the first period then received the drug with food, while those who received Compound 2 with food in the first period then received the drug without food.
The effects of food on the pharmacokinetics of Compound 2 were assessed after oral administration of 200 mg Compound 2 to 12 subjects in the fed and fasted states. The absorption rate of Compound 2 in fed state was decreased, with Tmax delayed by 2 hours and Cmax decreased by about 30%; however, there was no impact on the extent of absorption (AUC) and elimination (T½) of Compound 2.

[6] = Single-dose PK in rat; format: in vivo, male Sprague Dawley rats; settings: male, Sprague Dawley, plasma
Procedure: A series of single-dose PK studies were conducted in rat, dog, and monkey to investigate the plasma PK of Compound 2 following single oral and single intravenous (IV) administration of Compound 2.
The PK profile of Compound 2 was evaluated in male Sprague Dawley rats (n=3) following single IV administration of Compound 2 at 1 mg/kg and single oral administration at 5 mg/kg. Following each administration serial blood samples were collected at 0 (predose), 0.08, 0.25, 0.5, 0.75, 2, 5, 10, and 24 hours postdose.

[7] = human, Compound 2 25 mg fasted + itraconazole
[8] = human, Compound 2 25 mg fasted, N = 12
[9] = 1 mg/kg, IV, dose 1, SPEW, free base measured
[10] = 5 mg/kg, PO, dose 5, 0.1% CMC/0.2% Tween, free base measured

T1 sequence (Q06187 whole entry): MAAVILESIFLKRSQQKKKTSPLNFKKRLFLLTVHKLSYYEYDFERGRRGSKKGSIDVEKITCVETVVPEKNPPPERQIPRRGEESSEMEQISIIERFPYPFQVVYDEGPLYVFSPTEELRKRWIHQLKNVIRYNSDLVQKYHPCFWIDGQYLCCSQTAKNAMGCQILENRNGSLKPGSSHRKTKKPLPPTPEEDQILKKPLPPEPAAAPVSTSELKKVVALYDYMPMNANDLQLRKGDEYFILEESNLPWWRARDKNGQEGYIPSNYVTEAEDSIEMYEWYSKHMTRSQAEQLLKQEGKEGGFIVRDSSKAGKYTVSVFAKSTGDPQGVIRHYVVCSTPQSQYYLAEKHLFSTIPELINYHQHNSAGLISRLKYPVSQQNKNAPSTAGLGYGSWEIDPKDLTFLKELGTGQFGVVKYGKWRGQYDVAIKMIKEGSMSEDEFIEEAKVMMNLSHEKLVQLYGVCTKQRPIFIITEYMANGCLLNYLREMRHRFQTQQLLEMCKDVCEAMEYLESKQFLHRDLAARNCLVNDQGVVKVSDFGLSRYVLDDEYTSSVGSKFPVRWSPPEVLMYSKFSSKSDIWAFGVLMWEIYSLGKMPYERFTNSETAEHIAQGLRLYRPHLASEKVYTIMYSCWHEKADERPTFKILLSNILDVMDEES

With `NC(=O)[C@H]1CCN(c2ncnc(N)c2F)C[C@@H]1N1CCC[C@@H](Nc2cc(Cl)cc(C(F)(F)F)c2)C1=O` [Compound 1, (3R,3′R,4′S)-1′-(6-amino-5-fluoropyrimidin-4-yl)-3-((3-chloro-5-(trifluoromethyl)phenyl)amino)-2-oxo-[1,3′-bipiperidine]-4′-carboxamide] the “% BTK inhibition” value ([1]; Compound 1 plasma concentrations lower or close to 100 ng/mL) was at most 75%, the “inhibition of pBTK” value ([1]; Compound 1 plasma concentrations ≥200 ng/mL) was at least 85% and the “inhibition of pBTK” value ([1]; all dose levels, rapid, profound and prolonged, FIG. 13) was about 100%. The “inhibition (pBTK)” value ([1]; plasma concentrations above 1000 ng/mL, most of the subjects, largely around 100%) was over 85%, the “increase of plasma exposure (Cmax) with itraconazole” value ([2]; 25 mg Compound 2 + itraconazole vs alone) was “about 2 fold” and the CYP3A4 substrate classification ([2]; ≥5-fold increase in exposure in the presence of CYP enzyme inhibition) was “sensitive substrate for CYP3A4”. The “decrease of CpG induced CD40 expression” value [3] was 8.7% and the Kd [4] was at least 0.2 µM.
In the case of `NC(=O)[C@H]1CCN(c2ncnc(N)c2F)C[C@@H]1N1CCC[C@@H](Nc2cc(Cl)cc(C(F)(F)F)c2)C1=O` [Compound 2], the “apparent total body clearance and volume of distribution, fed vs fasted” value [5] is reported as “comparable in both food conditions”, the “impact of food on extent of absorption (AUC) and elimination (T½)” value ([5]; fed vs fasted) is reported as “no impact” and the “decrease of Cmax in fed state” value ([5]; fed vs fasted, 12 subjects) is reported as “about 30%”. For the same compound, the Tmax ([5]; both sexes, human, plasma, fed vs fasted, 12 subjects, read-out: delay of Tmax in fed state) was 2 h, the CL/F ([2]; human, in vivo, 25 mg) was 6.34 (41.6) L/hr and the Vd/F ([2]; human, in vivo, 25 mg) was 57.5 L. The half-life ([2]; human, in vivo, 25 mg) was 6.9 h, the Cmax ([2]; human, Compound 2 25 mg fasted + itraconazole, N = 12) was 1680 ng/mL and the AUC(0-t) [2, 7] was 28000 ng·h/mL. For the same compound, the AUC(0-inf) ([2]; human, Compound 2 25 mg fasted + itraconazole, N = 11) was 32200 ng·h/mL, the Tmax [2, 7] was 1.5 h and the Cmax [2, 8] was 873 ng/mL. For the same compound, the Tmax [2, 8] was 1 h, the AUC(0-inf) ([2]; human, Compound 2 25 mg fasted) was 4620 ng·h/mL and the AUC(0-t) ([2]; human, Compound 2 25 mg fasted) was 4420 ng·h/mL. The AUC(0-inf) [6, 9] was 16100 ng·h/mL, the C0 [6, 9] was 4370 ng/mL and the half-life [6, 9] was 4 h. For the same compound, the AUC(0-inf) [6, 10] was 14600 ng·h/mL, the Cmax [6, 10] was 1780 ng/mL and the Tmax [6, 10] was 2.6 h. It also gave a bioavailability ([6]; 5 mg/kg, PO, dose 5, 0.1% CMC/0.2% Tween, read-out: % F (oral bioavailability)) of 18%.
